pEC50: −log10 of the molar value.
Test system: ATF4 luciferase reporter in HEK293T cells
Experiment: ATF4-Luc assay (in vitro model of VWMD)
Type: cell-based, human
Details: Homo sapiens, HEK-293T, 7 h, HEK293T cells carrying the ATF4 luciferase reporter, 1 μg/mL tunicamycin, One Glo luminescence
Procedure: In order to test exemplary compounds of the invention in a cellular context, a stable VWMD cell line was first constructed. The ATF4 reporter was prepared by fusing the human full-length ATF4 5′-UTR (NCBI Accession No. BC022088.2) in front of the firefly luciferase (FLuc) coding sequence lacking the initiator methionine as described in Sidrauski et al (eLife 2013). The construct was used to produce recombinant retroviruses using standard methods and the resulting viral supernatant was used to transduce HEK293T cells, which were then subsequently selected with puromycin to generate a stable cell line.
HEK293T cells carrying the ATF4 luciferase reporter were plated on polylysine coated 384-well plates (Greiner Bio-one) at 30,000 cells per well. Cells were treated the next day with 1 μg/mL tunicamycin and 200 nM of a compound of Formula (I) for 7 hours. Luminescence was measured using One Glo (Promega) as specified by the manufacturer. Cells were maintained in DMEM with L-glutamine supplemented with 10% heat-inactivated FBS (Gibco) and Antibiotic-Antimycotic solution (Gibco).
Table 4 below summarizes the EC50 data obtained using the ATF4-Luc assay for exemplary compounds of the invention.

Row | SMILES | pEC50
1 | COc1ncc(OCC(=O)NC23CC(c4ccnc(OCCCOC(F)(F)F)c4)(C2)C3)cn1 [Compound 452, 2-[(2-methoxypyrimidin-5-yl)oxy]-N-(3-{2-[3-(trifluoromethoxy)propoxy]pyridin-4-yl}bicyclo[1.1.1]pentan-1-yl)acetamide] | 6.30 to 6.60
2 | O=C(NC12CC(n3cc(-c4ccc(OC(F)(F)F)c(F)c4)cn3)(C1)C2)[C@@H]1C[C@@H](O)c2cc(Cl)ccc2O1 [Compound 306, (2S,4R)-6-chloro-N-(3-{4-[3-fluoro-4-(trifluoromethoxy)phenyl]-1H-pyrazol-1-yl}bicyclo[1.1.1]pentan-1-yl)-4-hydroxy-3,4-dihydro-2H-1-benzopyran-2-carboxamide] | > 8.00
3 | O=C(CO[C@H]1C[C@@H](OC(F)(F)F)C1)NC12CCC(NC(=O)[C@H]3C[C@@H](O)c4cc(Cl)c(F)cc4O3)(CC1)[C@@H](O)C2 [Compound 490, (2R,4R)-6-chloro-7-fluoro-4-hydroxy-N-[(2S)-2-hydroxy-4-(2-{[(1s,3R)-3-(trifluoromethoxy)cyclobutyl]oxy}acetamido)bicyclo[2.2.2]octan-1-yl]-3,4-dihydro-2H-1-benzopyran-2-carboxamide] | > 8.00
4 | O=C(NC12CC(c3cnc(OCCCOC(F)(F)F)o3)(C1)C2)[C@H]1C[C@@H](O)c2cc(Cl)ccc2O1 [Compound 415, (2R,4R)-6-chloro-4-hydroxy-N-(3-{2-[3-(trifluoromethoxy)propoxy]-1,3-oxazol-5-yl}bicyclo[1.1.1]pentan-1-yl)-3,4-dihydro-2H-1-benzopyran-2-carboxamide] | > 8.00
5 | O=C(NC12CC(n3cc(N4CCN(CC(F)(F)F)CC4=O)cn3)(C1)C2)[C@H]1C[C@@H](O)c2cc(Cl)ccc2O1 [Compound 383, (2R,4R)-6-chloro-4-hydroxy-N-(3-{4-[2-oxo-4-(2,2,2-trifluoroethyl)piperazin-1-yl]-1H-pyrazol-1-yl}bicyclo[1.1.1]pentan-1-yl)-3,4-dihydro-2H-1-benzopyran-2-carboxamide] | > 8.00
6 | O=C(NC12CC(n3cc(N4CCC(OC(F)(F)F)C4)cn3)(C1)C2)[C@H]1C[C@@H](O)c2cc(Cl)ccc2O1 (stereo partly drawn) [Compound 325, (2R,4R)-6-chloro-4-hydroxy-N-(3-{4-[3-(trifluoromethoxy)pyrrolidin-1-yl]-1H-pyrazol-1-yl}bicyclo[1.1.1]pentan-1-yl)-3,4-dihydro-2H-1-benzopyran-2-carboxamide] | > 8.00
7 | O=C(NC12CC(c3cnn(CCCOC(F)(F)F)c3)(C1)C2)[C@H]1C[C@@H](O)c2cc(Cl)ccc2O1 [Compound 528, (2R,4R)-6-chloro-4-hydroxy-N-(3-{1-[3-(trifluoromethoxy)propyl]-1H-pyrazol-4-yl}bicyclo[1.1.1]pentan-1-yl)-3,4-dihydro-2H-1-benzopyran-2-carboxamide] | 7.30 to 8.00
8 | CCOc1ccc2nn(C34CC(NC(=O)COc5ccc(Cl)c(Cl)c5)(C3)C4)cc2c1 [Compound 623, 2-(3,4-dichlorophenoxy)-N-[3-(5-ethoxy-2H-indazol-2-yl)bicyclo[1.1.1]pentan-1-yl]acetamide] | > 8.00
9 | COc1ccc2nn([C@H]3CC[C@H](NC(=O)[C@H]4C[C@@H](O)c5cc(Cl)ccc5O4)CC3)cc2n1 [Compound 508, (2R,4R)-6-chloro-4-hydroxy-N-[(1r,4R)-4-(5-methoxy-2H-pyrazolo[4,3-b]pyridin-2-yl)cyclohexyl]-3,4-dihydro-2H-1-benzopyran-2-carboxamide] | 7.30 to 8.00
10 | O=C(NC12CC(n3cc(OCCCOC(F)(F)F)cn3)(C1)C2)[C@H]1C[C@@H](O)c2cc(C(F)(F)F)c(F)cc2O1 [Compound 635, (2R,4R)-7-fluoro-4-hydroxy-N-(3-{4-[3-(trifluoromethoxy)propoxy]-1H-pyrazol-1-yl}bicyclo[1.1.1]pentan-1-yl)-6-(trifluoromethyl)-3,4-dihydro-2H-1-benzopyran-2-carboxamide] | > 8.00
11 | O=C(NC12CC(n3cnc(C4CC(OC(F)(F)F)C4)c3)(C1)C2)[C@H]1C[C@@H](O)c2cc(C(F)(F)F)ccc2O1 (stereo partly drawn) [Compound 471, (2R,4R)-4-hydroxy-N-(3-{4-[(1s,3S)-3-(trifluoromethoxy)cyclobutyl]-1H-imidazol-1-yl}bicyclo[1.1.1]pentan-1-yl)-6-(trifluoromethyl)-3,4-dihydro-2H-1-benzopyran-2-carboxamide] | > 8.00
12 | Cc1ccc(-c2cnn(C34CC(NC(=O)[C@H]5C[C@@H](O)c6cc(C(F)(F)F)ccc6O5)(C3)C4)c2)nc1 [Compound 555, (2R,4R)-4-hydroxy-N-{3-[4-(5-methylpyridin-2-yl)-1H-pyrazol-1-yl]bicyclo[1.1.1]pentan-1-yl}-6-(trifluoromethyl)-3,4-dihydro-2H-1-benzopyran-2-carboxamide] | > 8.00
13 | COc1ccc2nn(C34CC(NC(=O)C5CNc6cc(C(F)(F)F)c(F)cc6O5)(C3)C4)cc2n1 (centres unmarked) [Compound 654, 7-fluoro-N-[3-(5-methoxy-2H-pyrazolo[4,3-b]pyridin-2-yl)bicyclo[1.1.1]pentan-1-yl]-6-(trifluoromethyl)-3,4-dihydro-2H-1,4-benzoxazine-2-carboxamide] | 7.30 to 8.00
14 | O=C(NC12CC(n3cc4cc(COCC(F)(F)F)ccc4n3)(C1)C2)[C@H]1C[C@@H](O)c2cc(Cl)ccc2O1 [Compound 650, (2R,4R)-6-chloro-4-hydroxy-N-(3-{5-[(2,2,2-trifluoroethoxy)methyl]-2H-indazol-2-yl}bicyclo[1.1.1]pentan-1-yl)-3,4-dihydro-2H-1-benzopyran-2-carboxamide] | > 8.00
15 | COc1cc2cn(C34CC(NC(=O)[C@H]5C[C@@H](O)c6cc(Cl)c(Cl)cc6O5)(C3)C4)nc2cn1 [Compound 503, (2R,4R)-6,7-dichloro-4-hydroxy-N-[3-(5-methoxy-2H-pyrazolo[3,4-c]pyridin-2-yl)bicyclo[1.1.1]pentan-1-yl]-3,4-dihydro-2H-1-benzopyran-2-carboxamide] | > 8.00
16 | O=C(NC12CC(n3cc(C(=O)N4CCC(F)(F)C4)cn3)(C1)C2)[C@H]1C[C@@H](O)c2cc(Cl)ccc2O1 [Compound 384, (2R,4R)-6-chloro-N-{3-[4-(3,3-difluoropyrrolidine-1-carbonyl)-1H-pyrazol-1-yl]bicyclo[1.1.1]pentan-1-yl}-4-hydroxy-3,4-dihydro-2H-1-benzopyran-2-carboxamide] | 6.30 to 6.60
17 | O=C(NC12CC(n3cc(-c4ccc(OC(F)(F)F)nc4)cn3)(C1)C2)[C@@H]1C[C@@H](O)c2cc(Cl)ccc2O1 [Compound 351, (2S,4R)-6-chloro-4-hydroxy-N-(3-{4-[6-(trifluoromethoxy)pyridin-3-yl]-1H-pyrazol-1-yl}bicyclo[1.1.1]pentan-1-yl)-3,4-dihydro-2H-1-benzopyran-2-carboxamide] | > 8.00
18 | O=C(NC12CC(n3cc(C(=O)N4CCC(OC(F)(F)F)CC4)cn3)(C1)C2)[C@H]1C[C@@H](O)c2cc(Cl)ccc2O1 [Compound 366, (2R,4R)-6-chloro-4-hydroxy-N-(3-{4-[4-(trifluoromethoxy)piperidine-1-carbonyl]-1H-pyrazol-1-yl}bicyclo[1.1.1]pentan-1-yl)-3,4-dihydro-2H-1-benzopyran-2-carboxamide] | 6.60 to 7.30
19 | O=C(NC12CC(n3cc(-c4ccn(C(F)(F)F)n4)cn3)(C1)C2)[C@H]1C[C@@H](O)c2cc(Cl)c(F)cc2O1 [Compound 562, (2R,4R)-6-chloro-7-fluoro-4-hydroxy-N-{3-[1-(trifluoromethyl)-1H,1′H-[3,4‘-bipyrazol]-1’-yl]bicyclo[1.1.1]pentan-1-yl}-3,4-dihydro-2H-1-benzopyran-2-carboxamide] | > 8.00
20 | O=C(NC12CC(n3cc(C[C@H]4C[C@H](OC(F)(F)F)C4)cn3)(C1)C2)[C@H]1C[C@@H](O)c2cc(Cl)c(F)cc2O1 [Compound 530, (2R,4R)-6-chloro-7-fluoro-4-hydroxy-N-[3-(4-{[(1r,3S)-3-(trifluoromethoxy)cyclobutyl]methyl}-1H-pyrazol-1-yl)bicyclo[1.1.1]pentan-1-yl]-3,4-dihydro-2H-1-benzopyran-2-carboxamide] | 7.30 to 8.00
21 | O=C(COc1ccc(C(F)(F)F)c(F)c1)N[C@H]1CC[C@H](n2cc(C(=O)N3CC[C@H](OC(F)(F)F)C3)cn2)CC1 [Compound 614, 2-[3-fluoro-4-(trifluoromethyl)phenoxy]-N-[(1S,4r)-4-{4-[(3S)-3-(trifluoromethoxy)pyrrolidine-1-carbonyl]-1H-pyrazol-1-yl}cyclohexyl]acetamide] | > 8.00
22 | O=C(NC12CC(n3cc([C@@H]4CC[C@@H](OC(F)(F)F)C4)nn3)(C1)C2)[C@H]1C[C@@H](O)c2cc(Cl)ccc2O1 (mixture of isomers) [Compound 538, (2R,4R)-6-chloro-4-hydroxy-N-(3-{4-[(1RS,3RS)-3-(trifluoromethoxy)cyclopentyl]-1H-1,2,3-triazol-1-yl}bicyclo[1.1.1]pentan-1-yl)-3,4-dihydro-2H-1-benzopyran-2-carboxamide] | > 8.00
23 | O=C(NC12CC(n3cc(-c4ccc(C(F)(F)F)cn4)cn3)(C1)C2)[C@H]1C[C@H](O)c2cc(Cl)ccc2O1 [Compound 546, (2R,4S)-6-chloro-4-hydroxy-N-(3-{4-[5-(trifluoromethyl)pyridin-2-yl]-1H-pyrazol-1-yl}bicyclo[1.1.1]pentan-1-yl)-3,4-dihydro-2H-1-benzopyran-2-carboxamide] | 7.30 to 8.00

Reference: US20250145594A1, “MODULATORS OF THE INTEGRATED STRESS PATHWAY” (Calico Life Sciences LLC, priority 2020, published 2025)
